Assay results from patent US12502380B2, “MrgprX2 antagonists for the treatment of inflammatory disorders” (Dermira, Inc., priority 2019, dated 2025).

Target: T1, Human MrgprX2 (Homo sapiens, UniProt Q96LB1)
T1 construct: expressed in transfected cells
T1 sequence (Q96LB1 1-330): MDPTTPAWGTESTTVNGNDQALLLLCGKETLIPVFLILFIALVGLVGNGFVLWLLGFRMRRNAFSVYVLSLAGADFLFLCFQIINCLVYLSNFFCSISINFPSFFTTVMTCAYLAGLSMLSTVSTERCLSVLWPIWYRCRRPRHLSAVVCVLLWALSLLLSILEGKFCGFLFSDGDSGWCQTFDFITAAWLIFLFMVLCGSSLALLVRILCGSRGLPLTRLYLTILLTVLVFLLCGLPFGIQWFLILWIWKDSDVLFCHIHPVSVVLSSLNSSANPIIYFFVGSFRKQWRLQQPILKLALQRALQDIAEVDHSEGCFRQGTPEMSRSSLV
Assay: Human MrgprX2 antagonist FLIPR intracellular calcium mobilization assay
Assay type: cell-based
Conditions: antagonist activity, recombinant hMrgpMRGPRX2 expressing cells, read-out: Human MrgprX2 Antagonist pIC50 (converted)
Text: Potent and selective hMrgpMRGPRX2 compounds have been generated from compounds identified during a high throughput screening (HTS) campaign and followed up with cycles of structure activity based medicinal chemistry efforts. These compounds were characterized in recombinant hMrgpMRGPRX2 expressing cells for their antagonist activity and the potency was confirmed in the human mast cell line LAD-2, where the target is endogenously expressed. The assays used to determine potencies are functional read-out looking at intracellular calcium mobilization using the FLIPR™ technology. In these FLIPR assays, we test the identified compounds using recombinant cellular systems expressing mouse MrgprB2, mouse MrgprA1, gerbil MrgpMRGPRX2 orthologue, Chinese hamster MrgpMRGPRX2 orthologue and cynomolgus monkey MrgpMRGPRX2 orthologue, respectively for orthologue activity.

Compound	IC50 [nM]
CC(CO)N(C)C(=O)Nc1ncc(Cc2cccc(F)c2)s1 (centres unmarked) [Compound E128]	31.6
CCN(C[C@H](C)O)C(=O)Nc1nc2ccccc2s1 [Compound E129]	1000
C[C@H](O)CN(C)C(=O)Nc1ncc(Cc2ccc(F)cc2)s1 [Compound E130]	200
NC(=O)[C@@H]1CCCN1C(=O)Nc1ncc(Cc2cccc(F)c2)s1 [Compound E131]	6310
CN(CCO)C(=O)Nc1ncc(Cc2cccc(F)c2)s1 [Compound E132]	2510
C[C@@H](O)CN(C)C(=O)Nc1ncc(Cc2cc(F)cc(F)c2)s1 [Compound E133]	6.31
C[C@H](O)CN(C)C(=O)Nc1ncc(Cc2cc(F)cc(F)c2)s1 [Compound E134]	1.58
C[C@H](O)CN(C)C(=O)Nc1ncc(Cc2ccc(F)c(F)c2)s1 [Compound E135]	15.8
C[C@H](O)CN(C)C(=O)Nc1ncc(Cc2cc(F)ccc2F)s1 [Compound E136]	3.98
C[C@H](O)CN(C)C(=O)Nc1ncc(Cc2cccc(F)c2F)s1 [Compound E137]	10
C[C@H](O)CN(C)C(=O)Nc1ncc(CC2CCCC2)s1 [Compound E138]	2000
CCN(C[C@H](C)O)C(=O)Nc1ncc(Cc2cc(F)ccc2OC)s1 [Compound E139]	39.8
CCN(C[C@H](C)O)C(=O)Nc1ncc(Cc2cccc(F)c2OC)s1 [Compound E140]	501
C[C@H](O)CN(C)C(=O)Nc1ncc(Cc2ccc(F)cc2F)s1 [Compound E141]	50.1
C[C@H](O)CN(C)C(=O)Nc1ncc(Cc2c(F)cccc2F)s1 [Compound E142]	1580
COc1ccc(F)cc1Cc1cnc(NC(=O)N(C)C[C@H](C)O)s1 [Compound E143]	398
C[C@H](O)CN(C)C(=O)Nc1ncc(Cc2cccc(C#N)c2)s1 [Compound E144]	1580
C[C@H](O)CN(C)C(=O)Nc1ncc(Cc2ccc(C#N)cc2)s1 [Compound E145]	3160
CCN(C[C@H](C)O)C(=O)Nc1ncc(Cc2cc(F)cc(C#N)c2)s1 [Compound E146]	39.8
CCN(C[C@H](C)O)C(=O)Nc1ncc(Oc2ccc(C#N)cc2)s1 [Compound E147, 3-[5-(4-cyanophenoxy)thiazol-2-yl]-1-ethyl-1-[(2S)-2-hydroxypropyl]urea]	3.16
C[C@@H](O)CN(C)C(=O)Nc1ncc(Oc2ccccc2)s1 [Compound E148]	15.8
C[C@H](O)CN(C)C(=O)Nc1ncc(Oc2ccccc2)s1 [Compound E149]	2
C[C@@H](O)CN(C)C(=O)Nc1ncc(Oc2cccc(F)c2)s1 [Compound E150]	1.58
C[C@H](O)CN(C)C(=O)Nc1ncc(Oc2ccc(F)cc2)s1 [Compound E151]	2
C[C@H](O)CN(C)C(=O)Nc1ncc(Oc2cccc(F)c2)s1 [Compound E152]	1.58
CCN(C[C@H](C)O)C(=O)Nc1ncc(Oc2cccc(Cl)c2)s1 [Compound E153]	0.794
CCN(C[C@H](C)O)C(=O)Nc1ncc(Oc2ccc(F)cc2)s1 [Compound E154]	0.631

Compound	IC50 [nM]
CCN(C[C@H](C)O)C(=O)Nc1ncc(Oc2ccccc2)s1 [Compound E155]	0.631
C[C@H](O)CN(C)C(=O)Nc1ncc(Oc2ccc(C#N)cc2)s1 [Compound E156]	39.8
CCN(C[C@H](C)O)C(=O)Nc1ncc(Oc2ccc(C)nc2)s1 [Compound E157]	126
CCN(C[C@H](C)O)C(=O)Nc1ncc(Oc2cncc(F)c2)s1 [Compound E158]	1.26
C[C@H](O)CN(C)C(=O)Nc1ncc(Oc2cccc(C#N)c2)s1 [Compound E159]	10
C[C@H](O)CN(C)C(=O)Nc1ncc(Oc2ccc(C(F)(F)F)cc2)s1 [Compound E160]	2510
CCN(C[C@H](C)O)C(=O)Nc1ncc(Oc2ccc(C(F)(F)F)cc2)s1 [Compound E161]	316
CCN(C[C@H](C)O)C(=O)Nc1ncc(Oc2cccc(C#N)c2)s1 [Compound E162]	1.58
CCN(C[C@H](C)O)C(=O)Nc1ncc(Oc2ccc(C#N)c(F)c2)s1 [Compound E163]	1
C[C@H](O)CN(C)C(=O)Nc1ncc(Oc2ccc(C#N)c(F)c2)s1 [Compound E164]	3.16
C[C@H](O)CN(C)C(=O)Nc1ncc(Oc2ccc(F)c(C#N)c2)s1 [Compound E165]	20
CCN(C[C@H](C)O)C(=O)Nc1ncc(Oc2cccnc2)s1 [Compound E166]	100
C[C@H](O)CN(C)C(=O)Nc1ncc(Oc2cccnc2)s1 [Compound E167]	3160
C[C@H](O)CN(C)C(=O)Nc1ncc(Oc2ccccc2F)s1 [Compound E168]	3.98
C[C@H](O)CN(C)C(=O)Nc1ncc(Oc2ccc(F)nc2)s1 [Compound E169]	251
CCN(C[C@H](C)O)C(=O)Nc1ncc(Oc2ccc(F)nc2)s1 [Compound E170]	3.98
CCN(C[C@H](C)O)C(=O)Nc1ncc(Oc2ccccc2F)s1 [Compound E171]	0.794
C[C@H](O)CN(C)C(=O)Nc1ncc(Oc2cncc(C#N)c2)s1 [Compound E172]	1580
CCN(C[C@H](C)O)C(=O)Nc1ncc(Oc2cncc(C#N)c2)s1 [Compound E173]	31.6
C[C@H](O)CN(C)C(=O)Nc1ncc(Oc2ccccc2C#N)s1 [Compound E174]	631
CCN(C[C@H](C)O)C(=O)Nc1ncc(Oc2ccccc2C#N)s1 [Compound E175]	316
C[C@H](O)CN(C)C(=O)Nc1ncc(Oc2cncc(F)c2)s1 [Compound E176]	50.1
Cc1cncc(Oc2cnc(NC(=O)N(C)C[C@H](C)O)s2)c1 [Compound E177]	1580
CCN(C[C@H](C)O)C(=O)Nc1ncc(Oc2cncc(C)c2)s1 [Compound E178]	31.6
C[C@H](O)CN(C)C(=O)Nc1ncc(Oc2cncc(C(F)(F)F)c2)s1 [Compound E179]	3980
CCN(C[C@H](C)O)C(=O)Nc1ncc(Oc2cncc(C(F)(F)F)c2)s1 [Compound E180]	251
CCN(C[C@H](C)O)C(=O)Nc1ncc(Oc2ccnc(C#N)c2)s1 [Compound E181]	2510

Compound	IC50 [nM]
C[C@H](O)CN(C)C(=O)Nc1ncc(Oc2cccc(C(F)(F)F)c2)s1 [Compound E182]	20
CCN(C[C@H](C)O)C(=O)Nc1ncc(Oc2cccc(C(F)(F)F)c2)s1 [Compound E183]	3.16
CCN(C[C@H](C)O)C(=O)Nc1ncc(Oc2ccc(F)c(C#N)c2)s1 [Compound E184]	5.01
CCN(C[C@H](C)O)C(=O)Nc1ncc(Oc2ccnc(F)c2)s1 [Compound E185]	2
CCN(CCO)C(=O)Nc1ncc(Oc2ccc(F)cc2)s1 [Compound E186]	31.6
C[C@H](O)CN(C)C(=O)Nc1ncc(Oc2cc(F)cc(C#N)c2)s1 [Compound E187]	1.26
CCN(C[C@H](C)O)C(=O)Nc1ncc(Oc2cc(F)cc(C#N)c2)s1 [Compound E188]	1.26
C[C@H](O)CN(C)C(=O)Nc1ncc(Oc2ccc(C#N)cc2F)s1 [Compound E189]	398
CCN(C[C@H](C)O)C(=O)Nc1ncc(Oc2ccc(C#N)cc2F)s1 [Compound E190]	6.31
CCN(C[C@H](C)O)C(=O)Nc1ncc(Oc2ccc(F)cc2C#N)s1 [Compound E191]	794
C[C@H](O)CN(C)C(=O)Nc1ncc(Oc2ccc(F)cc2C#N)s1 [Compound E192]	3160
CCN(C[C@H](C)O)C(=O)Nc1ncc(Oc2cc(C#N)ccc2F)s1 [Compound E193]	39.8
C[C@H](O)CN(C)C(=O)Nc1ncc(Oc2cc(C#N)ccc2F)s1 [Compound E194]	501
C[C@H](O)CN(C)C(=O)Nc1ncc(Oc2cc(F)ccc2C#N)s1 [Compound E195]	2000
CCN(C[C@H](C)O)C(=O)Nc1ncc(Oc2cc(F)ccc2C#N)s1 [Compound E196]	316
CCN(C[C@H](C)O)C(=O)Nc1ncc(Oc2cccc(C#N)c2F)s1 [Compound E197]	50.1
C[C@H](O)CN(C)C(=O)Nc1ncc(Oc2cccc(C#N)c2F)s1 [Compound E198]	398
CCN(C[C@H](C)O)C(=O)Nc1ncc(Oc2cccc(F)c2C#N)s1 [Compound E199]	251
C[C@H](O)CN(C)C(=O)Nc1ncc(Oc2cccc(F)c2C#N)s1 [Compound E200]	1580
CCN(C[C@H](C)O)C(=O)Nc1ncc(Oc2cncnc2)s1 [Compound E201]	2510
CCN(C[C@H](C)O)C(=O)Nc1ncc(Oc2ccc(Cl)nc2)s1 [Compound E202]	200
CCN(C[C@H](C)O)C(=O)Nc1ncc(Oc2cccnc2F)s1 [Compound E203]	100
CCN(C[C@@H](C)O)C(=O)Nc1ncc(Oc2ccc(F)cc2)s1 [Compound E204]	3.16
CN(CCO)C(=O)Nc1ncc(Oc2ccc(F)cc2)s1 [Compound E205]	251
CCN(C[C@H](C)O)C(=O)Nc1ncc(Oc2cc(C)cc(C#N)c2)s1 [Compound E206]	6.31
CCN(C[C@H](C)O)C(=O)Nc1nc(C#N)c(Oc2ccc(F)cc2)s1 [Compound E207]	1000
